In patent US7868013B2, “Cycloalkyl substituted pyrimidinediamine compounds and their uses” (Rigel Pharmaceuticals, Inc., priority 2004, dated 2011):
pIC50: −log10 of the molar value. Structures can show the parent of a compound that is named as a salt. Where two headings read alike, the source gives them in different places.

Key:
A549 (lung carcinoma) = assay: In vitro antiproliferation assay, A549 cells (TABLE 1 6 point assay; TABLE 2); assay type: cell-based
Protocol: (§1) Certain compounds were tested against other cell types for their ability to inhibit proliferation in standard antiproliferation assays.

[1] = tested on: H1299 (non-small cell lung carcinoma); assay: In vitro antiproliferation assay, H1299 cells (TABLE 1 6 point assay; TABLE 2); assay type: cell-based
Protocol: as §1

[2] = Homo sapiens, A549, 6 point assay, A549 cells, read-out: IC50, A549 cells
[3] = Homo sapiens, NCI-H1299, 6 point assay, H1299 cells, read-out: IC50, H1299 cells

CCS(=O)(=O)N1CCN(c2ccc(Nc3ncc(F)c(NC4C5C=CC(C5)C4C(N)=O)n3)cc2C)CC1 (racemic) [compound 261, Racemic-(2-exo,3-exo)-N4-(3-aminocarbonylbicyclo[2.2.1]hept-5-en-2-yl)-N2-[4-(4-ethylsulfonylpiperazin-1-yl)-3-methylphenyl]-5-fluoro-2,4-pyrimidinediamine]
pIC50 (A549 (lung carcinoma); [2]): ≥ 7.00 | pIC50 [1, 3]: ≥ 7.00

Cc1cc(Nc2ncc(F)c(NC3C4C=CC(C4)C3C(N)=O)n2)ccc1NC1CCN(C)CC1 (racemic) [compound 262, Racemic-(2-exo,3-exo)-N4-(3-aminocarbonylbicyclo[2.2.1]hept-5-en-2-yl)-5-fluoro-N2-[3-methyl-4-(1-methylpiperidin-4-ylamino)phenyl]-2,4-pyrimidinediamine]
pIC50 (A549 (lung carcinoma); [2]): ≥ 7.00 | pIC50 [1, 3]: ≥ 7.00

NC(=O)C1C2C=CC(C2)C1Nc1nc(Nc2ccc(C3CCNCC3)cc2)ncc1F (racemic) [compound 264, Racemic-(2-exo,3-exo)-N4-(3-aminocarbonylbicyclo[2.2.1]hept-5-en-2-yl)-5-fluoro-N2-[4-(piperidin-4-yl)phenyl]-2,4-pyrimidinediamine]
pIC50 (A549 (lung carcinoma); [2]): ≥ 7.00 | pIC50 [1, 3]: 6.00 to 7.00

CN1CCC(c2ccc(Nc3ncc(F)c(NC4C5C=CC(C5)C4C(N)=O)n3)cc2)CC1 (racemic) [compound 265, Racemic-(2-exo,3-exo)-N4-(3-aminocarbonylbicyclo[2.2.1]hept-5-en-2-yl)-5-fluoro-N2-[4-(1-methylpiperidin-4-yl)phenyl]-2,4-pyrimidinediamine]
pIC50 (A549 (lung carcinoma); [2]): ≥ 7.00 | pIC50 [1, 3]: ≥ 7.00

COc1cc(Nc2ncc(F)c(N[C@@H]3[C@H](C(N)=O)[C@H]4C=C[C@@H]3C4)n2)ccc1N1C(=O)CN(C)CC1=O (racemic) [compound 266, Racemic-(2-exo,3-exo)-N4-(3-aminocarbonylbicyclo[2.2.1]hept-5-en-2-yl)-5-fluoro-N2-[3-methoxy-4-(4-methyl-2,6-dioxopiperazino)phenyl]-2,4-pyrimidinediamine]
pIC50 (A549 (lung carcinoma); [2]): 6.00 to 7.00 | pIC50 [1, 3]: 6.00 to 7.00

NC(=O)C1C2C=CC(C2)C1Nc1nc(Nc2cccc(C3CCNCC3)c2)ncc1F (racemic) [compound 267, Racemic-(2-exo,3-exo)-N4-(3-aminocarbonylbicyclo[2.2.1]hept-5-en-2-yl)-5-fluoro-N2-[3-(piperidin-4-yl)phenyl]-2,4-pyrimidinediamine]
pIC50 (A549 (lung carcinoma); [2]): ≥ 7.00 | pIC50 [1, 3]: ≥ 7.00

CN1CCC(c2cccc(Nc3ncc(F)c(NC4C5C=CC(C5)C4C(N)=O)n3)c2)CC1 (racemic) [compound 268, Racemic-(2-exo,3-exo)-N4-(3-aminocarbonylbicyclo[2.2.1]hept-5-en-2-yl)-5-fluoro-N2-[3-(1-methylpiperidin-4-yl)phenyl]-2,4-pyrimidinediamine]
pIC50 (A549 (lung carcinoma); [2]): ≥ 7.00 | pIC50 [1, 3]: ≥ 7.00

Cc1cc(Nc2ncc(F)c(NC3C4C=CC(C4)C3C(N)=O)n2)cc(C)c1N1CCN(C)CC1 (racemic) [compound 271, Racemic-(2-exo,3-exo)-N4-(3-aminocarbonylbicyclo[2.2.1]hept-5-en-2-yl)-N2-[3,5-dimethyl-4-(4-methylpiperazin-1-yl)phenyl]-5-fluoro-2,4-pyrimidinediamine]
pIC50 (A549 (lung carcinoma); [2]): 5.00 to 6.00 | pIC50 [1, 3]: 5.00 to 6.00

Cc1cc(Nc2ncc(F)c(NC3C4C=CC(C4)C3C(N)=O)n2)ccc1O (racemic) [compound 277, Racemic-(2-exo,3-exo)-N4-(3-aminocarbonylbicyclo[2.2.1]hept-5-en-2-yl)-5-fluoro-N2-(4-hydroxy-3-methylphenyl)-2,4-pyrimidinediamine Bis- Hydrochloride Salt]
pIC50 (A549 (lung carcinoma); 6 point assay, A549 cells, read-out: IC50, A549 cells): ≥ 7.00 | pIC50 ([1]; 6 point assay, H1299 cells, read-out: IC50, H1299 cells): ≥ 7.00

CN1CCN(C(=O)CCCc2ccc(Nc3ncc(F)c(N[C@H]4CCC[C@H]4C(N)=O)n3)cc2)CC1 (racemic) [compound 278, Racemic-cis-N4-(2-aminocarbonylcyclopent-1-yl)-5-fluoro-N2-{4-[(4-methylpiperazin-1-yl)-butan-1-one-4-yl]phenyl}-2,4-pyrimidinediamine]
pIC50 (A549 (lung carcinoma); [2]): 5.00 to 6.00 | pIC50 [1, 3]: 5.00 to 6.00

CN1CCN(C(=O)Cc2ccc(Nc3ncc(F)c(N[C@H]4CCC[C@H]4C(N)=O)n3)cc2)CC1 (racemic) [compound 279, Racemic-cis-N4-(2-aminocarbonylcyclopent-1-yl)-5-fluoro-N2-{4-[(4-methylpiperazin-1-yl)-ethan-1-one-2-yl]phenyl}-2,4-pyrimidinediamine]
pIC50 (A549 (lung carcinoma); [2]): 5.00 to 6.00 | pIC50 [1, 3]: 5.00 to 6.00

CN1CCN(C(=O)CCc2ccc(Nc3ncc(F)c(N[C@H]4CCC[C@H]4C(N)=O)n3)cc2)CC1 (racemic) [compound 280, Racemic-cis-N4-(2-aminocarbonylcyclopent-1-yl)-5-fluoro-N2-{4-[(4-methylpiperazin-1-yl)-propan-1-one-3-yl]}phenyl-2,4-pyrimidinediamine]
pIC50 (A549 (lung carcinoma); [2]): 5.00 to 6.00 | pIC50 [1, 3]: 5.00 to 6.00

CN1CCN(C(=O)c2ccc(Nc3ncc(F)c(N[C@H]4CCC[C@H]4C(N)=O)n3)cc2)CC1 (racemic) [compound 281, Racemic-cis-N4-(2-aminocarbonylcyclopent-1-yl)-5-fluoro-N2-[4-(4-methylpiperaino-1-yl-carbonyl)phenyl]-2,4-pyrimidinediamine]
pIC50 (A549 (lung carcinoma); [2]): 5.00 to 6.00 | pIC50 [1, 3]: 5.00 to 6.00

Cc1cc(Nc2ncc(F)c(N[C@H]3CCC[C@H]3C(N)=O)n2)ccc1N1CC2CC1CN2C (mixture of isomers) [compound 282, Racemic-cis-N4-(2-aminocarbonylcyclopent-1-yl)-5-fluoro-N2-[3-methyl-4-(5-methyl-(1S,4S)-2,5-diazabicyclo[2.2.1]heptan-2-yl)phenyl]-2,4-pyrimidinediamine]
pIC50 (A549 (lung carcinoma); [2]): 6.00 to 7.00 | pIC50 [1, 3]: 6.00 to 7.00

Cc1cc(Nc2ncc(F)c(N[C@H]3CCC[C@H]3C(N)=O)n2)ccc1N1CC(C)OC(C)C1 (mixture of isomers) [compound 283, Racemic-cis-N4-(2-aminocarbonylcyclopent-1-yl)-N2-[4-(2,6-dimethylmorpholino)-3-methyl]phenyl-5-fluoro-2,4-pyrimidinediamine]
pIC50 (A549 (lung carcinoma); [2]): 6.00 to 7.00 | pIC50 [1, 3]: 6.00 to 7.00

Cc1cc(Nc2ncc(F)c(N[C@@H]3CCC[C@H]3C(N)=O)n2)ccc1N1CCN(C)CC1 [15c, (1R,2R)—N4-(2-Aminocarbonylcyclopent-1-yl)-5-fluoro-N2-[4-(4-methylpiperazin-1-yl)-3-methylphenyl]-2,4-pyrimidinediamine]
pIC50 (A549 (lung carcinoma); [2]): 5.00 to 6.00 | pIC50 [1, 3]: 5.00 to 6.00

Cc1cc(Nc2ncc(F)c(N[C@H]3CCC[C@@H]3C(N)=O)n2)ccc1N1CCN(C)CC1 [15d, (1S,2S)—N4-(2-Aminocarbonylcyclopent-1-yl)-5-fluoro-N2-[4-(4-methylpiperazin-1-yl)-3-methylphenyl]-2,4-pyrimidinediamine]
pIC50 (A549 (lung carcinoma); [2]): < 5.00 | pIC50 [1, 3]: < 5.00

Cc1cc(Nc2ncc(F)c(N[C@H]3[C@@H](C(=O)NC(C)c4ccccc4)[C@@H]4C=C[C@H]3C4)n2)ccc1N1CCN(C)CC1 (stereo partly drawn) [compound 109, (1R,2R,3S,4S)-N4-5-Fluoro-N4-(3-(R)-alpha-methylbenzylaminocarbonylbicyclo[2.2.1]hept-5-en-2-yl)-N2-[3-methyl-4-(4-methylpiperazin-1-yl)phenyl]-2,4-pyrimidinediamine]
pIC50 (A549 (lung carcinoma); Homo sapiens, A549, A549 cells, 6 point assay, read-out: A549, 6pt (IC50, inhibition of proliferation)): 6.00 to 7.00 | pIC50 ([1]; Homo sapiens, NCI-H1299, H1299 cells, 6 point assay, read-out: H1299, 6pt (IC50, inhibition of proliferation)): 6.00 to 7.00
